Test results: US9370189B2, “Controlling Pseudomonas aeruginosa persister cells with GM-CSF” (priority 2012, dated 2016)
“And” between values parts separate entries of the source, which are not always exact repeats. Equal values may be shown once.

How the values were obtained:
P. aeruginosa PAO1 = test: Effect of GM-CSF on planktonic PAO1 cells (total viable cells and persisters) at exponential phase, alone and with antibiotic, CFU by drop plate; assay type: cell-based, Pseudomonas aeruginosa; details: for % change in avg. CFU/ml after adding factor + CIP / % change in avg. CFU/ml after adding factor + GEN / % change in avg. CFU/ml after adding factor + TET / % change in avg. CFU/ml after adding factor + TOB / average CFU/mL of persisters reduced by / average CFU/mL of total viable cells reduced by: planktonic PAO1; for % change in avg. CFU/ml after adding factor + CIP: 2.43 pg/mL GM-CSF with 200 μg/mL ciprofloxacin; for % change in avg. CFU/ml after adding factor + GEN: 2.43 pg/mL GM-CSF with 200 μg/mL gentamicin; for % change in avg. CFU/ml after adding factor + TET: 2.43 pg/mL GM-CSF with 200 μg/mL tetracycline; for % change in avg. CFU/ml after adding factor + TOB: 2.43 pg/mL GM-CSF with 200 μg/mL tobramycin; for average CFU/mL of persisters reduced by / average CFU/mL of total viable cells reduced by: reduction
Protocol: This Example describes the treatment of planktonic P. aeruginosa PAO1, PDO300 and Escherichia coli K12, with GM-CSF introduced directly or together with an antibiotic to test the synergy. All experiments were conducted with cells harvested from exponential phase subcultures with an optical density at 600 nm (OD600) of 0.3 to 0.4.
In brief, after preparing an overnight culture of the tested strain in 25 ml LB medium, a subculture was prepared with an OD600 of 0.01 in 50 mL LB medium. The subculture was incubated at 37° C. with shaking at 200 rpm for 3-4 h, till an OD600 of 0.3 to 0.4 was reached. The exponential phase subculture was then divided equally into two centrifuge tubes, each containing 25 mL of the subculture. The subcultures were washed twice with 0.85% NaCl buffer by vortexing and then centrifuging at 4° C., 8000 rpm for 10 min each time. The washed subcultures/cells were resuspended in 25 mL 0.85% NaCl buffer and vortexed gently for 1 min. One of the tubes of subculture was selected for isolation of persisters by adding 200 μg/mL ciprofloxacin (for PAO1 and PDO300 strains) or 100 μg/mL ampicillin (for E. coli K12 strain). After adding the antibiotic for persister isolation, the subculture was incubated at 37° C., shaking at 200 rpm for 3.5 h.
To test the effects of GM-CSF on viability of persisters, the second tube was used to quantify the total number of viable cells and 1 mL of the washed persister cells was divided into 6 microcentrifuge tubes; 3 were control and the other 3 were GM-CSF treatment samples. In the treatment samples, GM-CSF was added to a concentration of 2.43 pg/mL (or 0.17 pM), the same as found in healthy human bodies. The control samples were supplemented with the same concentration of PBS and BSA as present in 2.43 pg/mL (or 0.17 pM) GM-CSF samples.
After incubating at 37° C. for 1 h with shaking at 200 rpm, the samples were plated on LB agar plates (15 g/L bacto agar) using drop plate method. The agar plates were then incubated for 24 h at 37° C. to count the total number of persister cells and understand the effect of 0.17 pM GM-CSF on the viability of persister cells.
To test the synergy with antibiotics, the above samples were then incubated at 37° C. for 3.5 h with shaking at 200 rpm after adding the selected antibiotic. After 3.5 h, the CFU of samples was quantified in the same way to understand if there is any synergy between GM-CSF and antibiotic. Similar treatments were performed on the total population in exponential phase as well. Apart from exponential phase, the synergistic effects of GM-CSF with antibiotics on total viable cells and persisters were also evaluated at stationary phase but PBS buffer (pH=7.4) was used in the experiments instead of 0.85% NaCl solution. Moreover, the 1 h and 3.5 h treatments were performed as co-treatments.

[1] = test system: whole cells of P. aeruginosa; test: GM-CSF binding assay to bacterial whole cells (slot blot immunoblotting); design: species or system Pseudomonas aeruginosa; details: PBS, room temperature, 2 h, anti-rhGM-CSF immunoblot (FIG. 21)
Protocol: This Example describes experiments conducted to determine the capability of GM-CSF to bind to whole cells of P. aeruginosa and E. coli. In brief, bacteria harvested at stationary phases of growth were washed with PBS and adjusted to OD600 of 0.4 with PBS to ensure that an equal amount of cells was used for all GF-CSF binding tests. Suspensions of bacteria (10^6 CFU) were then incubated with and without different amount of recombinant human GM-CSF (rhGM-CSF, R&D systems) in a 40 μL volume at room temperature for 2 hours. After incubation, the cell suspension was centrifuged to separate supernatant (comprising buffer and unbound GM-CSF) and pellet (comprising cell and bound GM-CSF, if any), followed by the addition of 10 mM EDTA and boiling for 30 minutes to inactivate bacterial alkaline phosphatase activity. As control, PBS buffer with GM-CSF were processed in the similar manner. All the samples were then applied to Slot Blot (BioRad) for immunoblotting experiments. Anti-rhGMCSF developed in mice (Human GM-CSF MAb, Mouse IgG1, R&D system) was used as first antibody; Alkaline Phosphatase conjugated with Anti-mouse IgG was used to detect the binding of GM-CSF with BCIP/NBT (Promega) as substrates.

[2] = 2.43 pg/ml GM-CSF with 200 μg/mL ciprofloxacin
[3] = 2.43 pg/ml GM-CSF with 200 μg/mL gentamicin
[4] = 2.43 pg/ml GM-CSF with 200 μg/mL tetracycline
[5] = 2.43 pg/ml GM-CSF with 200 μg/mL tobramycin

GM-CSF: granulocyte macrophage-colony stimulating factor, a cytokine secreted by macrophages; recombinant human GM-CSF (R&D systems) in binding tests
persister cells rendered sensitive to the antibiotic ciprofloxacin (P. aeruginosa PAO1; P. aeruginosa persister cells, GM-CSF at 2.43 pg/mL): more than 97% | % change in avg. CFU/ml after adding factor + CIP (P. aeruginosa PAO1; persisters): −97.95% | % change in avg. CFU/ml after adding factor + GEN (P. aeruginosa PAO1; persisters): −59.31% | % change in avg. CFU/ml after adding factor + TET (P. aeruginosa PAO1; persisters): −65.66% | % change in avg. CFU/ml after adding factor + TOB (P. aeruginosa PAO1; persisters): −81.42% | average CFU/mL of persisters reduced by (P. aeruginosa PAO1; [2]): 97.95% | average CFU/mL of total viable cells reduced by (P. aeruginosa PAO1; [2]): 15.38% | average CFU/mL of persisters reduced by (P. aeruginosa PAO1; [3]): 59.31% | average CFU/mL of total viable cells reduced by (P. aeruginosa PAO1; [3]): 10.53% | average CFU/mL of persisters reduced by (P. aeruginosa PAO1; [4]): 65.66% | average CFU/mL of total viable cells reduced by (P. aeruginosa PAO1; [4]): 23.06% | average CFU/mL of persisters reduced by (P. aeruginosa PAO1; [5]): 81.42% | average CFU/mL of total viable cells reduced by (P. aeruginosa PAO1; [5]): 34.62% | % change in avg. CFU/ml after adding factor (P. aeruginosa PAO1; total viable cells, planktonic PAO1, exponential phase, 2.43 pg/mL GM-CSF alone, 1 h): −2.22% and −5.00% and −2.94% and −1.69% | % change in avg. CFU/ml after adding factor + CIP (P. aeruginosa PAO1; total viable cells): −15.38% | % change in avg. CFU/ml after adding factor + GEN (P. aeruginosa PAO1; total viable cells): −10.53% | % change in avg. CFU/ml after adding factor + TET (P. aeruginosa PAO1; total viable cells): −23.08% | % change in avg. CFU/ml after adding factor + TOB (P. aeruginosa PAO1; total viable cells): −34.62% | binding to whole cells [1]: does bind
